Test system: spontaneously hypertensive rats
Experiment: Effects on spontaneously hypertensive rats (noninvasive tail artery systolic blood pressure)
Format: in vivo, rat
Settings: 2-month-old spontaneously hypertensive rats; intragastric once a day for 6 weeks; amlodipine besylate tablets 0.05 mg/kg, multivitamin 600 mg/kg; measured 3 hours after last administration; mean ± spread, n=10
Description: Experimental animals are 2-month-old spontaneously hypertensive rats.
Experimental methods are as follows. Spontaneous hypertensive rats are taken and randomly divided into a model group and respective experimental groups. Specifically, in experimental group 1, amlodipine besylate tablets are given by intragastric administration at a dose of 0.05 milligrams per kilogram (mg/kg) once a day for 6 weeks. In experimental groups 2-9, amlodipine besylate tablets are given by intragastric administration at a dose of 0.05 mg/kg, and the products of the embodiments or comparative embodiments are given by intragastric administration at a dose of 600 mg/kg once a day for 6 weeks. The model group is given the same volume of distilled water once a day for 6 weeks. At 3 hours after the last administration, systolic blood pressure data are obtained on the computer through the software of noninvasive tail artery blood pressure measuring instrument. Blood pressure of each rat is measured 6-10 times each time, and the mean value is taken as the measured systolic blood pressure of the rat.

CCOC(=O)C1=C(COCCN)NC(C)=C(C(=O)OC)C1c1ccccc1Cl (stereo not shown) [Experimental group 1, amlodipine besylate]
6 weeks 3 h systolic blood pressure: 160.29 ± 2.46
